According to patent US20250122397A1, “FOOD SAFE AQUEOUS INKJET COMPOSITIONS” (Canon Production Printing Holding B.V., priority 2023, published 2025):

Assay: Viscosity, Haake Rheostress RS 600 rheometer, flat plate geometry
Format: physicochemical
Details: for Viscosity: 1.5 mol/kg aqueous Mg-salt solution, 25° C.
Procedure: The viscosity is measured using a Haake Rheometer, type Haake Rheostress RS 600, with a flat plate geometry at a temperature of 25° C. unless otherwise indicated. The viscosity is measured at shear rates (i) of between in the range of between 10 s^−1 and 1000 s^−1, unless otherwise indicated.

Row | SMILES | Viscosity [mPas] | viscosity relative to the jettable range (jettable range typically between 2 and 8 mPas, 1.5 mol/kg solution)
1 | O=S(=O)([O-])[O-].[Mg+2] [compound 1, Mg-sulfate, reference compound] | 3.2 | 
2 | O=[N+]([O-])[O-].O=[N+]([O-])[O-].[Mg+2] [compound 2, Mg-nitrate, reference compound] | 4.6 | 
3 | C=C(CC(=O)[O-])C(=O)[O-].[Mg+2] [compound 8, Mg-itaconate] | 5.5 | 

Further lines, results first:

Row | Viscosity [mPas] | viscosity relative to the jettable range (jettable range typically between 2 and 8 mPas, 1.5 mol/kg solution) | SMILES
4 | 5.0 |  | O=C([O-])CCC(=O)[O-].[Mg+2] [compound 10, Mg-succinate]
5 | 10.3 | outside the jettable range | CC(=O)CCC(=O)[O-].CC(=O)CCC(=O)[O-].[Mg+2] [compound 14, Mg-levulinate]
6 | 8.8 |  | O=C([O-])CCCCC(=O)[O-].[Mg+2] [compound 15, Mg-adipate]
